Experiments:
[1] = test system: MCF10A cells; experiment: Chemical inhibition of Latrunculin-A-enhanced microtubule protrusions in suspended cells; assay type: cell-based, human; conditions: MCF10A in suspension, then LA 5 μM one hour; sodium orthovanadate 1 mM, S-Trityl-L-Cysteine 100 μM, TDZD-8 20 μM
Protocol: MCF10A cells were placed into suspension in the presence of the indicated chemical inhibitors targeted at specific signaling pathways or the corresponding vehicle controls. Cells were then treated with the actin polymerization inhibitor, Latrunculin-A (LA, 5 μM) for one hour to enhance protrusions. […] Thus, protrusions can be reduced by chemical inhibition of specific signaling proteins.

[2] = test system: microtentacles; experiment: Microtentacle frequency after pretreatment with Okadaic Acid or Calyculin-A; assay type: cell-based; conditions: pretreated 1 h, suspended with or without Latrunculin-A
Protocol: In FIG. 35, cells were pretreated for 1 h with DMEM media alone (Control) or the indicated concentrations of either Okadaic Acid (OKA) […] or Calyculin-A (Cal-A) to promote vimentin disassembly. Cells were then suspended by trypsinization with or without addition of Latrunculin-A (LA) to enhance microtentacle frequency.

[3] = test system: EpH4 cells; experiment: Protrusions in suspended cells treated with cytoskeletal inhibitors (EpH4); assay type: cell-based, mouse; conditions: EpH4, 15 minutes of suspension; Latrunculin-A 5 μM, Colchicine 1 μM
Protocol: (§1) In FIG. 2A, after 15 minutes of suspension, protrusions in EpH4 and MCF10A cells are quite small (Control, white arrows). […] In FIG. 2B, populations of live, suspended cells were scored blindly for two or more protrusions longer than the cell radius. Each bar represents the mean+S.D. for three experiments in which at least 100 single cells were counted.
EpH4 cells were suspended in either DMEM (Control) or media containing 5 μM Latrunculin-A (LA), 1 μM Colchicine or the combination of both drugs for 30 minutes. Cells were then spun onto glass coverslips and fluorescently stained for α-tubulin (green) and polymerized actin (red). Protrusions that are difficult to see by phase contrast are easily discernible with immunostaining for α-tubulin (white arrows). Protrusions contain little polymerized actin, except at points of concentration, which are often at the end (arrowhead).
EpH4 and B19 cells were suspended over 2% agarose coated plates to prevent attachment in either serum-free DMEM or media containing. Latrunculin-A (5 μM) to enhance protrusions. For co-staining of α-tubulin and actin, suspended cells were then centrifuged onto poly-L-lysine coated coverslips (280 g×5 min), fixed in 3.7% formaldehyde in PBS for 10 min, and permeablized with 0.1% Triton X-100 in PBS. Adhered cells were then stained for 1 hr at room temperature using FITC-conjugated anti-α-tubulin (1:200; Sigma), Alexa-594 phalloidin (1:100; Molecular Probes), and Hoescht 33342 (1:5000; Sigma).
(§2) In order to initially characterize the cytoskeletal mechanism underlying these protrusions, suspended cells were treated with inhibitors of actin and tubulin polymerization (FIG. 2). After 15 minutes of suspension, the protrusions in untreated EpH4 or MCF10A cells remain fairly short (FIG. 2, white arrows). These early protrusions can often be difficult to detect with phase-contrast microscopy, due to interfering light refraction from the plasma membrane. […] Protrusions were more easily visible with immunofluorescence than phase contrast microscopy (FIG. 3, white arrows). Although actin filament staining was generally low along the length of the protrusion, dense points of actin were often found at the end of protrusions (FIG. 3, arrowheads).

[4] = test system: EpH4-Bcl2 cells; experiment: Cell-cell attachment assay; assay type: cell-based, mouse; conditions: EpH4-Bcl2 in 0.3% methylcellulose over agarose, 5 hours
Protocol: (§3) In FIG. 6A, EpH4-Bcl2 cells were suspended over agarose and treated with inhibitors as above. Following treatment, cells were plated into 0.3% methylcellulose media over agarose and the rate of cell-cell attachment was followed by Hoescht DNA staining. […] Similar results were found in three independent experiments. In FIG. 6B, EpH4-Bcl2 cells suspended over agarose for one hour in DMEM or DMEM containing LA (5 μM), Colchicine (1 μM), or the combination. Reattachment of these cells to either uncoated tissue culture plates or those pre-coated with laminin was followed by XTT cell viability assay. Values represent mean+S.D. of raw XTT values of three separate experiments.
B19 cells were seeded onto 10 cm dishes until 80% confluency. The media was aspirated and cells were incubated in fresh growth media containing Hoescht 33342 (1:5000) for 30 min at 37° C. to label all attached cells. The cells were washed twice in PBS, detached by trypsinization, and an equivalent number of cells were resuspended in serum-free media containing 0.3% methylcellulose with either 5 μM Latrunculin A, 100 μM Colchicine, 1 μg/ml vinblastine, or 5 μg/ml nocodazole and plated over 2% agarose-coated 24-well plates. The progression of cell-cell adhesion over time was visualized by the EpiChemi3 Imaging System (UVP, Inc.; Upland, Calif.) using an excitation wavelength of 365 nm and a blue band pass filter. Images were obtained with an attached Hamamatsu CCD camera (Hamamatsu Photonics, Hamamatsu City, Japan) and analyzed with UVP Labworks Image Acquisition and Analysis Software v. 4.6.
(§4) To determine if these microtubule protrusions influence the ability of cells to form attachments, the cells were treated with inhibitors of actin or tubulin polymerization and assessed both cell-cell and cell-substratum attachment (FIG. 6). […] Induction of such nonspecific attachment activity in detached mammary epithelial cells could promote tumor cell dissemination, particularly when apoptotic resistance allows this response to continue for extended periods.

[5] = test system: MCF10A cells; experiment: Protrusions in suspended cells treated with cytoskeletal inhibitors (MCF10A); assay type: cell-based, human; conditions: MCF10A, 15 minutes of suspension; Latrunculin-A 5 μM, Colchicine 1 μM
Protocol: as §1, §2
The nontumorigenic human mammary epithelial cell line (MCF10A) or the indicated human breast tumor cell lines were grown in suspension for 30-60 minutes, and protrusions were counted in random fields with phase-contrast microscopy. Values represent the mean±S.D. of three experiments in which at least 100 cells were counted. […] This effect was most apparent in the highly metastatic but exemplary Bt-474 and MDA-MB-231 cells (pictured, black arrows). The exemplary MCF10A cells show far fewer and shorter protrusions at the same time point (pictured, white arrows). Such protrusions are not observed in attached cells.

[6] = test system: EpH4-Bcl2 cells; experiment: Cell-substratum attachment assay; assay type: cell-based, mouse; conditions: for attachment of cells to tissue culture surfaces: EpH4-Bcl2 (B19), 1 hr in suspension with inhibitor, then replated
Protocol: as §3
Equivalent numbers of B19 cells were suspended over 6-well plates coated in 2% agarose in serum-free media containing 5 μM Latrunculin-A (LA; BioMol, Plymouth Meeting, Pa.), 100 μM colchicine (Col; Sigma, St. Louis, Mo.), 5 μg/ml nocodazole (Noc), or 1 μg/ml vinblastine (VinB; Sigma) for a duration of 1 hr at 37° C. Cells were collected by centrifugation (1000 rpm×5 min) and drug containing media was aspirated. Cells were resuspended in EpH4 serum-containing growth media and aliquoted out into 24 wells (8 timepoints×3 replicates) of a 96-well clear bottom black plate. After plating, cells were allowed to attach for duration of 15 min, 45 min, 1.5 hr, 2 hr, 3 hr, 4 hr, 5 hr, and 24 hr at which point the media was aspirated from the replicate wells, washed twice in PBS, and fresh growth media was replaced at each timepoint. After 24 hr, all wells were aspirated and cells were incubated in growth media containing Hoescht 33342 (1:5000) for 30 min at 37° C. to label all attached cells. Fluorescence was measured using a Biotek Synergy HT Multi-Detection Microplate Reader (Winooski, Vt.) at excitation wavelength 360 nm and an emission filter of 460 nm followed by subsequent analysis using the KC4 Data Analysis software. The percentage of cell attachment for each treatment exposure was calculated as the RFU at each timepoint divided by the RFU at 24 h (maximum attachment). The standard deviations of triplicates at each timepoint are shown.
as §4

[7] = test system: detached mammary epithelial cells; experiment: Protrusions of detached mammary epithelial cells, general statements; assay type: cell-based, human and mouse
Protocol: Time-lapse video microscopy of detached mammary epithelial cells detected the extension of long, dynamic protrusions of the plasma membrane, and the present inventors have characterized the cytoskeletal mechanism underlying this novel observation. […] This response may be relatively short-lived, in specific embodiments, since mammary epithelial cells die by apoptosis within about 24 hours in suspension. However, cell lines that resist apoptosis through expression of either Bcl-2 or Bcl-xL will persistently form protrusions. Previous studies by the inventors indicate that such apoptotically-resistant cell lines will not form tumors in mice and lie dormant in distant tissues, in specific embodiments of the invention. […] These microtubule processes can extend more than 3 times the cell diameter, and undergo a rapid probing motion more than once per second. Formation of these microtubule protrusions is necessary for efficient cell-cell and cell-substratum attachment. In particular embodiments of the invention, this inherent microtubule response in detached mammary epithelial cells provides at least some of the invasive characteristics of breast cancer, independent of any tumor-specific genetic alteration, for example.
Breast tumor cells enter the bloodstream long before the development of clinically evident metastasis. However, the early presence of such bloodborne cells predicts poor patient outcome. Nearly 90% of human breast tumors arise as carcinomas from mammary epithelial cells, so it is important to characterize how these cells respond to the detached conditions that they would experience in the bloodstream. In the present invention, mammary epithelial cell lines produce long and dynamic protrusions of the plasma membrane when detached. Although human and mouse mammary epithelial cell lines die by apoptosis within 16 hours of detachment, this protrusive response persists for days in cells overexpressing either Bcl-2 or Bcl-xL, for example. […] Since bloodborne metastasis depends on both cell-cell and cell-matrix attachment, microtubule-based protrusions in detached mammary epithelial cells provide a novel target that could influence the metastatic spread of breast tumors.
Detachment-induced increases in Glu-tubulin could promote plasma membrane protrusions of microtubules by preventing efficient capture at the actin cortex. […] Therefore, our current model is that detachment increases stabilized microtubules enriched in Glu-tubulin, while decreased actin polymerization simply promotes extension of these microtubule protrusions.

[8] = test system: Bt-474; experiment: GFP-membrane protrusion counts after local anesthetics (Bt-474); assay type: cell-based, human; conditions: Bt-474, GFP-membrane; Lidocaine 50 mM, Tetracaine 2.5 mM; with or without LA
Protocol: (§5) Cells were then suspended in DMEM culture media with or without […] Latrunculin-A (LA) to induce protrusions by depolymerizing actin. […] Bars represent mean+S.D. of at least three blindly counted experiments.

[9] = test system: MDA-231; experiment: GFP-membrane protrusion counts after local anesthetics (MDA-231); assay type: cell-based, human; conditions: MDA-231, GFP-membrane; Lidocaine 50 mM, Tetracaine 2.5 mM; with or without LA
Protocol: as §5

[10] = test system: metastasis; conditions: known, via unclear mechanism; cited from earlier work

For `CCCCCC[C@@H]([C@@H](C)O)n1cnc2c(N)ncnc21` (racemic) [EHNA], the protrusions [1] was “reduced protrusions, but these results were not statistically significant”.

With `COC[C@@H]([C@H](O)[C@H](O)C(=O)NCC[C@H](C)c1nc(/C=C/C[C@@H]2O[C@]3(C[C@@H](O)[C@@H]2C)O[C@H]([C@H](C[C@H](O)[C@H](C)[C@H](O)[C@H](C)/C=C(C)/C(C)=C/C=C/C(C)=C\C#N)OC)[C@H](OP(=O)(O)O)C3(C)C)co1)N(C)C` [Calyculin-A] the microtentacles [2] was “reduce microtentacles significantly” and the microtentacles ([2]; listed as calyculin-A) was “reduces microtentacles”.

With `COc1cc2c(c(OC)c1OC)-c1ccc(OC)c(=O)cc1[C@@H](NC(C)=O)CC2` [Colchicine] the protrusions [3] was “prevented protrusions”, the “cell-cell attachment (clustering)” value [4] was “prevented efficient clustering” and the protrusions [5] was “prevented protrusions”. The “attachment of cells to tissue culture surfaces” value (shortened to “attachment of cells”) [6] was “significantly delayed attachment”, the “cell-surface attachment to uncoated or laminin-coated plates (XTT)” value ([6]; EpH4-Bcl2 suspended one hour, LA 5 μM, Colchicine 1 μM) was “significantly prevents initial cell attachment” and the protrusions [7] was “inhibited”.

In the case of `CCN(CC)CC(=O)Nc1c(C)cccc1C` [Lidocaine], the protrusions [8] is listed as “inhibited significantly”, the protrusions [9] is listed as “inhibited significantly” and the metastasis [10] is listed as “reduce metastasis”.

In the case of `C=C1[C@@H](O)[C@@H]2O[C@]3(CC[C@H](/C=C/[C@@H](C)[C@@H]4CC(C)=C[C@@]5(O[C@H](C[C@@](C)(O)C(=O)O)CC[C@H]5O)O4)O3)CC[C@H]2O[C@@H]1[C@@H](O)C[C@H](C)[C@H]1O[C@@]2(CCCCO2)CC[C@H]1C` [Okadaic acid], the microtentacles [2] is reported as “reduce microtentacles significantly” and the microtentacles ([2]; listed as okadaic acid) is reported as “reduces microtentacles”.

In the case of `N[C@@H](CSC(c1ccccc1)(c1ccccc1)c1ccccc1)C(=O)O` [S-Trityl-L-Cysteine], the protrusions [1] is reported as “significantly reduces protrusions”.

For `CN[C@H]1CCc2cc(OC)c(OC)c(OC)c2-c2ccc(OC)c(=O)cc21` [colcemid], the protrusions [7] was “inhibited”.

With `COc1ccc(CNc2nc(NCc3ccc(OC)cc3)c3ncn(C(C)C)c3n2)cc1` [myoseverin] the protrusions [7] was “inhibited”.

For `COC(=O)Nc1nc2ccc(C(=O)c3cccs3)cc2[nH]1` [nocodazole], the “cell-cell attachment (clustering)” value [4] was “prevented efficient clustering”, the “attachment of cells” value [6] was “significantly delayed attachment” and the protrusions [7] was “inhibited”.

For `[Na+].[Na+].[Na+].[O]=[V]([O-])([O-])[O-]` [sodium orthovanadate], the protrusions [1] was “significantly reduces protrusions”.

With `CC[C@]1(O)C[C@@H]2CN(CCc3c([nH]c4ccccc34)[C@@](C(=O)OC)(c3cc4c(cc3OC)N(C)[C@H]3[C@@](O)(C(=O)OC)[C@H](OC(C)=O)[C@]5(CC)C=CCN6CC[C@]43[C@@H]65)C2)C1` [vinblastine] the “cell-cell attachment (clustering)” value [4] was “prevented efficient clustering”, the “attachment of cells” value [6] was “significantly delayed attachment” and the protrusions [7] was “inhibited”.

For `CC[C@]1(O)C[C@H]2CN(CCc3c([nH]c4ccccc34)[C@@](C(=O)OC)(c3cc4c(cc3OC)N(C=O)[C@H]3[C@@](O)(C(=O)OC)[C@H](OC(C)=O)[C@]5(CC)C=CCN6CC[C@]43[C@@H]65)C2)C1` [vincristine], the protrusions [7] was “inhibited”.
